These results are taken from patent US20100119599A1 (ARCHER PHARMACEUTICALS, INC., priority 2006, published 2010).

The test system of one test is Aβ1-42. Nature of the test: Measurement of Aβ1-42 in culture medium of 7W WT APP751 CHO cells by ELISA.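 For Aβ1-42 (% of control): 5 µM test compound but RI-coded compounds at 10 µM for 24 hours.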 The format is cell-based, Chinese hamster. The conditions noted are these: for activity at 5 µM: Cricetulus griseus, 5 μM test compound, CHO cells stably transfected with human APP751, culture medium, ELISA, control DMSO; for Aβ1-42 (% of control): CHO cells that overexpress APP751, zero = below the detection limit of the assay. As for the experimental part:
(§1) Chinese hamster ovary (CHO) cells, stably transfected with human APP751 (7W WT APP751 CHO cells) were used. See, e.g., Koo and Squazzo, J. Biol. Chem., 269(26): 17386-17389, 1994. The cells were maintained in DMEM medium supplemented with 10% fetal bovine serum and 1× mixture of penicillin/streptomycin/fungizone/glutamine mixture (Cambrex, Md.) geneticin as selecting agent in 75 cm^2 cell culture flasks. The 7W WT APP751 CHO cells were plated in 96-well cell culture plates in quadruplicate, containing 200 microliters of culture medium, for 18 hours at 37° C. and 5% CO2. All test compounds were placed in dimethyl sulfoxide (DMSO) before being added to the cultured confluent 7W WT APP751 CHO cells to a concentration of the test compound of 5 μM. The culture medium was collected and diluted before being assayed by ELISAs for Aβ1-40 at 10-fold dilution and Aβ1-42 at 2-fold dilution, respectively. Concentrations of Aβ1-40 and Aβ1-42, expressed in pg/ml, were determined using commercially available ELISAs (Biosource, Calif.) in a colorimetric assay using labeled antibodies detected spectrophotometrically. For compounds with an identification beginning “RI”, the compounds were tested at a concentration of 10 μM for 24 hours. Control cells were treated with DMSO containing no compound. The percentage reduction in levels of Aβ1-40 and Aβ1-42 as compared to control cells not exposed to the test compounds are reported for the compounds in Tables 1, 2, and 3, supra. An entry of “0” indicates no detectable amount of Aβ1-40 or Aβ1-42 according to the assay conditions. The data in Tables 1, 2, and 3 may be rounded to the nearest 0.1%.
(In general: ELISA stands for enzyme-linked immunosorbent assay.)

Another test relates to Aβ1-40. The experiment in a line: Measurement of Aβ1-40 in culture medium of 7W WT APP751 CHO cells by ELISA.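 For all read-outs here: 5 µM test compound but RI-coded compounds at 10 µM for 24 hours.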 The format is cell-based, Chinese hamster. The conditions noted are these: for activity at 5 µM: Cricetulus griseus, 5 μM test compound, CHO cells stably transfected with human APP751, culture medium, ELISA, control DMSO; for Aβ1-40 (% of control): CHO cells that overexpress APP751, zero = below the detection limit of the assay. As for the experimental part:
as §1

Setting [1] is: Table 1, 0 = no detectable amount, read-out: Aβ1-42 (% of control).
[2] abbreviates: Table 1, 0 = no detectable amount.

Read-outs that look alike come from different tables or passages of the source.

With `COc1cc(C2C(C(=O)OC3CCCCC3)=C(C)NC3=C2C(=O)CC(c2ccccc2)C3)cc(Cl)c1O` (centres unmarked) [ST017050, cyclohexyl 4-(3-chloro-4-hydroxy-5-methoxyphenyl)-2-methyl-5-oxo-7-phenyl-1,4,6,7,8-pentahydroquinoline-3-carboxylate], the activity at 5 µM in the test with Aβ1-42 (setting [1]) was 22.2%; with Aβ1-40 (setting [2]) it was 39.6%.
In the same order, the values of `COc1cc(C2C(C(=O)OCCOc3ccccc3)=C(C)NC3=C2C(=O)CC(C)(C)C3)ccc1OCc1ccccc1` (centres unmarked) [ST015071, 2-phenoxyethyl 4-[3-methoxy-4-(phenylmethoxy)phenyl]-2,7,7-trimethyl-5-oxo-1,4,6,7,8-pentahydroquinoline-3-carboxylate] are 88.3% and 60.8%.
For `CC1=C(C(=O)OCc2ccccc2)C(c2ccc([N+](=O)[O-])cc2)C2=C(CC(C)(C)CC2=O)N1` (centres unmarked) [ST013214, phenylmethyl 2,7,7-trimethyl-4-(4-nitrophenyl)-5-oxo-1,4,6,7,8-pentahydroquinoline-3-carboxylate], the activity at 5 µM was 4.36% with Aβ1-42 (setting [1]) and 0% in the test on Aβ1-40 (setting [2]).
In the same order, the values of `CC1=C(C(=O)OCCOC(C)C)C(c2ccc([N+](=O)[O-])cc2)C2=C(CC(C)(C)CC2=O)N1` (centres unmarked) [ST052272, 2-(methylethoxy)ethyl 2,7,7-trimethyl-4-(4-nitrophenyl)-5-oxo-1,4,6,7,8-pentahydroquinoline-3-carboxylate] are 29.2% and 65.8%.
For `CCSCCOC(=O)C1=C(C)NC2=C(C(=O)CC(C)(C)C2)C1c1cccc(C)c1` (centres unmarked) [ST052457, 2-ethylthioethyl 2,7,7-trimethyl-4-(3-methylphenyl)-5-oxo-1,4,6,7,8-pentahydroquinoline-3-carboxylate], in that order: 63.9% and 38.1%.
`CC1=C(C(=O)Nc2ccc(Cl)cc2)C(c2ccccc2)C(C#N)=C(SCC(=O)Nc2cccc(C)c2)N1` (centres unmarked) [ST051153, 2-{5-[N-(4-chlorophenyl)carbamoyl]-3-cyano-6-methyl-4-phenyl(2-1,4-dihydropyridylthio)}-N-(3-methylphenyl)acetamide]: in the test on Aβ1-42, the “Aβ1-42 (% of control)” value is on record as 0 % of control. In addition, the “Aβ1-40 (% of control)” value in the test with Aβ1-40 is recorded as 4.933 % of control.
For `COC(=O)C1=CN(C23CC4CC(CC(C4)C2)C3)C=C(C(=O)OC)C1c1cccc([N+](=O)[O-])c1` [ST045329, methyl 1-adamantanyl-5-(methoxycarbonyl)-4-(3-nitrophenyl)-1,4-dihydropyridine-3-carboxylate], in that order: 68.52 % of control and 82.6 % of control.
Turning to `CCSCCOC(=O)C1=C(C)NC2=C(C(=O)CCC2)C1c1ccc(OCCO)c(OC)c1` (centres unmarked) [ST017113, 2-ethylthioethyl 4-[4-(2-hydroxyethoxy)-3-methoxyphenyl]-2-methyl-5-oxo-1,4,6,7,8-pentahydroquinoline-3-carboxylate], the values for the activity at 5 µM in the test on Aβ1-42 (setting [1]) and in the test with Aβ1-40 (setting [2]) were 74.1% and 82.6%, respectively.
In the case of `CCCOc1ccc(C2C(C(=O)OCc3ccc(OC)cc3)=C(C)NC3=C2C(=O)CC(C)(C)C3)cc1OC` (centres unmarked) [ST016979, (4-methoxyphenyl)methyl 4-(3-methoxy-4-propoxyphenyl)-2,7,7-trimethyl-5-oxo-1,4,6,7,8-pentahydroquinoline-3-carboxylate], the activity at 5 µM is 90.1% with Aβ1-42 (setting [1]) and 53.7% in the test with Aβ1-40 (setting [2]).
In the same order, the values of `CC1=C(C(=O)OCCc2ccccc2)C(c2ccccc2Cl)C2=C(CC(C)(C)CC2=O)N1` (centres unmarked) [ST015085, 2-phenylethyl 4-(2-chlorophenyl)-2,7,7-trimethyl-5-oxo-1,4,6,7,8-pentahydroquinoline-3-carboxylate] are 72.9% and 69.9%.
For `CCSCCOC(=O)C1=C(C)NC2=C(C(=O)CC(C)(C)C2)C1c1ccccc1C` (centres unmarked) [ST052342, 2-ethylthioethyl 2,7,7-trimethyl-4-(2-methylphenyl)-5-oxo-1,4,6,7,8-pentahydroquinoline-3-carboxylate], in that order: 9.88% and 13.7%.
In the same order, the values of `CC1=C(C(=O)OC(C)C)C(c2cccc(Cl)c2Cl)C2=C(CC(c3ccccc3)CC2=O)N1` (centres unmarked) [ST013439, methylethyl 4-(2,3-dichlorophenyl)-2-methyl-5-oxo-7-phenyl-1,4,6,7,8-pentahydroquinoline-3-carboxylate] are 80.3% and 19.7%.
`CCOC(=O)C1=C(C)NC2=C(C(=O)CCC2)C1c1cccc(F)c1` (centres unmarked) [ST013162, ethyl 4-(3-fluorophenyl)-2-methyl-5-oxo-1,4,6,7,8-pentahydroquinoline-3-carboxylate]: the values for the activity at 5 µM in the test with Aβ1-42 (setting [1]) and with Aβ1-40 (setting [2]) were 36.3% and 33.4%, respectively.
As for `COc1ccc(C2CC(=O)C3=C(C2)NC(C)=C(C(=O)OCc2ccccc2)C3c2ccncc2)cc1` (centres unmarked) [ST017266, phenylmethyl 7-(4-methoxyphenyl)-2-methyl-5-oxo-4-(4-pyridyl)-1,4,6,7,8-pentahydroquinoline-3-carboxylate], the activity at 5 µM amounted to 64.6% in the test on Aβ1-42 (setting [1]) and 65.5% in the test with Aβ1-40 (setting [2]).
For `CCCOc1ccc(C2C(C(=O)OCCSCC)=C(C)NC3=C2C(=O)CC(C)(C)C3)cc1OC` (centres unmarked) [ST017116, 2-ethylthioethyl 4-(3-methoxy-4-propoxyphenyl)-2,7,7-trimethyl-5-oxo-1,4,6,7,8-pentahydroquinoline-3-carboxylate], in that order: 43% and 43.5%.
In the same order, the values of `CC1=C(C(=O)OC2CCCCC2)C(c2ccc(Cl)c(Cl)c2)C2=C(CCCC2=O)N1` (centres unmarked) [ST013269, cyclohexyl 4-(3,4-dichlorophenyl)-2-methyl-5-oxo-1,4,6,7,8-pentahydroquinoline-3-carboxylate] are 1.35% and 12.3%.
In the same order, the values of `CC1=C(C(=O)OC2CCCCC2)C(c2cccc(Cl)c2)C2=C(CCCC2=O)N1` (centres unmarked) [ST015159, cyclohexyl 4-(3-chlorophenyl)-2-methyl-5-oxo-1,4,6,7,8-pentahydroquinoline-3-carboxylate] are 0% and 2.98%.
With `CC1=C(C(=O)OC2CCCC2)C(c2ccc(F)c(F)c2)C2=C(CCCC2=O)N1` (centres unmarked) [ST052267, cyclopentyl 4-(3,4-difluorophenyl)-2-methyl-5-oxo-1,4,6,7,8-pentahydroquinoline-3-carboxylate], the activity at 5 µM in the test with Aβ1-42 (setting [1]) is 52.8%; in the test with Aβ1-40 (setting [2]), 50.7%.
As to `CC1=C(C(=O)Nc2ccccc2)C(c2ccsc2)C(C#N)=C(SCC(=O)Nc2ccc(Br)cc2)N1` (centres unmarked) [RI_73], the “Aβ1-42 (% of control)” value in the test on Aβ1-42 is 34.9 % of control. The “Aβ1-40 (% of control)” value in the test on Aβ1-40 is listed as 24.3 % of control.
As to `N#CC(C#N)=CC=C1C=CN(Cc2ccccc2)C=C1` [ST208051, {2-[1-benzyl-4-hydropyridylidene]ethylidene}methane-11-dicarbonitrile], the activity at 5 µM was 75% with Aβ1-42 (Table 3, read-out: Aβ-42 (% of control)) and 57.1% in the test on Aβ1-40 (Table 3).
Turning to `N#CC1=C(N)Nc2c(c(=O)oc3ccccc23)C1c1ccc(Br)cc1` (centres unmarked) [ST014147, 2-amino-4-(4-bromophenyl)-5-oxo-1,4-dihydrochromeno[4,3-b]pyridine-3-carbonitrile], the “Aβ1-42 (% of control)” value with Aβ1-42 is listed as 68.55 % of control. In addition, the “Aβ1-40 (% of control)” value with Aβ1-40 is 82.09 % of control.
Consider `COC(=O)C1=C(C)NC2=C(C(=O)CC(C)(C)C2)C1c1cccc(Br)c1` (centres unmarked) [ST013145, methyl 4-(3-bromophenyl)-2,7,7-trimethyl-5-oxo-1,4,6,7,8-pentahydroquinoline-3-carboxylate], for which the activity at 5 µM with Aβ1-42 (setting [1]) was determined as 43.3%; in the test with Aβ1-40 (setting [2]), 13.9%.
In the same order, the values of `CCc1ccc(C2C(C(=O)OC3CCCCC3)=C(C)NC3=C2C(=O)CCC3)cc1` (centres unmarked) [ST013320, cyclohexyl 4-(4-ethylphenyl)-2-methyl-5-oxo-1,4,6,7,8-pentahydroquinoline-3-carboxylate] are 71.8% and 60.2%.
Take `CC1=C(C(=O)Nc2ccccc2)C(c2ccsc2)C(C#N)=C(SCC(=O)Nc2ccc(Cl)c(C)c2)N1` (centres unmarked) [RI_83]: the “Aβ1-42 (% of control)” value in the test with Aβ1-42 is 55.4 % of control. Also, the “Aβ1-40 (% of control)” value with Aβ1-40 is recorded as 44.1 % of control.
As for `CC1=C(C(=O)Nc2ccccc2)C(c2cccs2)C(C#N)=C(SCC(=O)Nc2ccc(Br)cc2)N1` (centres unmarked) [RI_71], the “Aβ1-42 (% of control)” value in the test on Aβ1-42 was 25.1 % of control. Also, in the test with Aβ1-40, the “Aβ1-40 (% of control)” value is recorded as 34.5 % of control.
